Literature values, collected in patent US7195778B2, “Drug delivery system for zero order, zero order-biphasic, ascending or descending drug delivery” (Teva Pharmaceutical Industries Ltd., priority 2001, dated 2007).
Where a name gives a salt, the structure may show the parent alone. Read-outs that look alike come from different tables or passages of the source.

In the case of COC(=O)C(c1ccccc1)C1CCCCN1 (stereo not shown) [methylphenidate HCl], the drug excreted (adults) is given as 80%, the drug excreted (children) is given as 67% and the time to peak (children, immediate release) is given as 1.9 h. For the same molecule, the “time to peak, range” value (children, immediate release) was 0.3 to 4.4 h, the primary adverse events (chronic dosing) was “nervousness, insomnia and appetite suppression” and the pharmacokinetic half-life (immediate release) was 2 to 3 h. The “AD/HD patients responding positively” value (reports) was 70–90%.
